Test results as given in patent publication US20240108760A1 (priority 2021, published 2024).
“Also recorded” adds a separate entry of the source. Read-outs that look alike come from different tables or passages of the source.

Legend:
[1] = molecular target: T1, CODA71 chimeric receptors (Homo sapiens, UniProt P36544, F159M/H163T/I152M/R155K/V154L/W156N/Y151P); test: Whole cell current clamp recording of CA1 neurons in acute slices, TC-5619 bath application; format: cell-based, C57BL/6 mice
[2] = molecular target: T1, CODA71 chimeric receptors; test: Evoked hippocampal seizure threshold, perforant pathway electrical stimulation; format: in vivo, C57BL/6 mice; conditions: for increase of minimal threshold potential to evoke electrographic seizures: i.p. TC-5619 (100 mg/kg)
Method: (§1) Changes to evoked hippocampal seizure thresholds were measured in response to perforant pathway electrical stimulation. For spontaneous seizure experiments, mice were unilaterally injected intrahippocampally with kainic acid (KA) to induce epilepsy, 3 weeks prior to AAV9 injection and EEG electrode implantation.
In one set of animal studies, two weeks prior to seizure threshold testing, CODA71 were bilaterally-expressed in CA1/DG, along with bipolar electrode placement in CAT and the perforant pathway. 45 minutes prior to threshold testing, mice received 100 mg/kg TC-5619 or saline via i.p. injection. Electrical stimulation (1 sec at 60 Hz, 1 ms pulses) of increasing amplitude was delivered every 100 seconds, until electrographic seizures were evoked (FIG. 29).
Here evoked seizure thresholds were determined by monitoring responses to increasing amplitude electrical stimulation and as the minimal stimulation amplitude required to evoke sustained epileptic form activity in each trial.

[3] = molecular target: T1, CODA71 chimeric receptors; test: Spontaneous seizures in the intrahippocampal kainic acid focal epilepsy model (chronic EEG); format: in vivo, C57BL/6 mice; conditions: for focal seizures (overall conclusion): CODA71 delivered by AAV9 to hippocampus, activated by TC-5619
Method: as §1
In one set of animal studies, seven weeks prior to testing of neuron activities, kainic acid was unilaterally injected into CAT to evoke spontaneous seizures. Five weeks later, CODA71 receptor were bilaterally expressed in CA1/DG, along with bipolar electrode placement in CAT for recording EEG (FIG. 32). Spontaneous seizures were tracked with chronic EEG recordings. On alternating days, mice received two i.p. injections of either 100 mg/kg TC-5619 or saline, 2 hrs apart.

hippocampal neurons = test: Hippocampal expression of CODA71 receptor after AAV9 delivery; format: in vivo, C57BL/6 mice; conditions: hSyn promoter
[4] = CODA71 vector injected mice, 100 mg/kg TC-5619 i.p. 45 minutes prior
[5] = scrambled control vector injected mice, TC-5619

Molecule | neuronal / CA1 action potential firing, excitability [1] | rheobase [1] [pA] | neuron property change in presence of bungarotoxin (BTX) ([1]; CODA71 vector vs scrambled control vector, α7-nAChR ligand binding domain inhibited by BTX) | intrinsic properties of whole cell recorded neurons (RMP, input resistance, rheobase, AP count) ([1]; after 1 minute application of 150 nM TC-5619) | increase of minimal threshold potential to evoke electrographic seizures ([2]; CODA71 animals, p=0.0166 vs scrambled controls) [%] | electrically-evoked seizure threshold [2, 4] | electrically-evoked seizure threshold [2, 5] | increase of minimal threshold potential to evoke electrographic seizures ([2]; scrambled controls) [%] | focal seizures (overall conclusion) [3] | electrographic seizure duration ([3]; CODA71 vector mice, KA epileptic, i.p. TC-5619 100 mg/kg, p=0.0011, 100 mg/kg) | electrographic / spontaneous seizure frequency ([3]; CODA71 vector mice, KA epileptic, i.p. TC-5619 100 mg/kg, p=0.0325, 100 mg/kg) | spontaneous seizure frequency and duration [3, 5] | expression of CODA71 receptor in hippocampal / CA1 neurons (hippocampal neurons) | neuronal / CA1 action potential firing, excitability ([1]; acute slices, CODA71 transduced, 1-minute bath application of 150 nM TC-5619)
O=C(N[C@@H]1C2CCN(CC2)[C@H]1Cc1cccnc1)c1cc2ccccc2o1 [TC-5619] | suppressed CA1 action potential firing | 368±39.7 | little property change | rapidly changed | 139±48.0 | increased more | did not change seizure thresholds | −10±13.2 | ameliorate spontaneous focal seizures | significantly reduced; also recorded: substantial decrease in seizure duration | significantly reduced; also recorded: dropped dramatically; also recorded: prolonged decrease in seizure frequency | little change; also recorded: No such effect was observed |  | 
CODA71: chimeric LGIC: human α7-nAChR ligand binding domain with GlyRα1 Cys-loop, fused to human GlyRα1 ion pore domain; SEQ ID NO: 33 (protein) MRCSPGGVWLALAASLLHVSLQGEFQRKLYKELVKNYNPLERPVANDSQPLTVYFSLSLLQIMDVDEKNQVLTTNIWLQMSWTDHYLQWNVSEYPGVKTVRFPDGQIWKPDILLYNSADERFDATFHTNVLVNSSGHCQYLPPGIFKSSCPMDLKNFPMDVQTCKLKFGSWSYGGWSLDLQMQEADISGYIPNGEWDLVGIPGKRSERFYECCKEPYPDVTFTVTMRRRMGYYLIQMYIPSLLIVILSWISFWINMDAAPARVGLGITTVLTMTTQSSGSRASLPKVSYVKAIDIWMAVCLLFVFSALLEYAAVNFVSRQHKELLRFRRKRRHHKSPMLNLFQEDEAGEGRFNFSAYGMGPACLQAKDGISVKGANNSNTTNPPPAPSKSPEEMRKLFIQRAKKIDKISRIGFPMAFLIFNMFYWIIYKIVRREDVHNQ |  |  |  |  |  | increased |  |  | effectively suppress focal seizure; also recorded: ameliorate spontaneous focal seizures; also recorded: prevented both evoked and spontaneous focal seizures |  |  |  | expressed well; also recorded: effective expression | effectively suppress neuronal firing; also recorded: successfully suppressed hippocampal neuronal excitability
